Values quoted from earlier work in patent publication US20210339043A1, “NEURAL STIMULATION VIA VISUAL STIMULATION” (Cognito Therapeutics, Inc., priority 2016, published 2021).

Conditions: 70 kg adult; for estimated absorbed radiation dose, Adrenals: organ: Adrenals; for estimated absorbed radiation dose, Brain: organ: Brain; for estimated absorbed radiation dose, Breasts: organ: Breasts; for estimated absorbed radiation dose, Heart Wall: organ: Heart Wall; for estimated absorbed radiation dose, Kidneys: organ: Kidneys; for estimated absorbed radiation dose, Lungs: organ: Lungs; for estimated absorbed radiation dose, Muscle: organ: Muscle; for estimated absorbed radiation dose, Ovaries: organ: Ovaries; for estimated absorbed radiation dose, Pancreas: organ: Pancreas; for estimated absorbed radiation dose, Red marrow: organ: Red marrow; for estimated absorbed radiation dose, Skin: organ: Skin; for estimated absorbed radiation dose, Spleen: organ: Spleen; for estimated absorbed radiation dose, Testes: organ: Testes; for estimated absorbed radiation dose, Thymus: organ: Thymus; for estimated absorbed radiation dose, Thyroid: organ: Thyroid; for estimated absorbed radiation dose, Urinary bladder wall: organ: Urinary bladder wall; for estimated absorbed radiation dose, Uterus: organ: Uterus

Row | SMILES | estimated absorbed radiation dose, Adrenals [rad/mCi] | estimated absorbed radiation dose, Brain [rad/mCi] | estimated absorbed radiation dose, Breasts [rad/mCi] | estimated absorbed radiation dose, Heart Wall [rad/mCi] | estimated absorbed radiation dose, Kidneys [rad/mCi] | estimated absorbed radiation dose, Lungs [rad/mCi] | estimated absorbed radiation dose, Muscle [rad/mCi] | estimated absorbed radiation dose, Ovaries [rad/mCi] | estimated absorbed radiation dose, Pancreas [rad/mCi] | estimated absorbed radiation dose, Red marrow [rad/mCi] | estimated absorbed radiation dose, Skin [rad/mCi] | estimated absorbed radiation dose, Spleen [rad/mCi] | estimated absorbed radiation dose, Testes [rad/mCi] | estimated absorbed radiation dose, Thymus [rad/mCi] | estimated absorbed radiation dose, Thyroid [rad/mCi] | estimated absorbed radiation dose, Urinary bladder wall [rad/mCi] | estimated absorbed radiation dose, Uterus [rad/mCi] | further results
1 | CNc1ccc(/C=C/c2ccc(OCCOCCOCC[18F])nc2)cc1 [18F-AV-45] | 0.05 | 0.037 | 0.023 | 0.048 | 0.048 | 0.032 | 0.032 | 0.065 | 0.053 | 0.053 | 0.022 | 0.033 | 0.025 | 0.027 | 0.025 | 0.1 | 0.058 | –
2 | OC[C@H]1O[C@@H](O)[C@H]([18F])[C@@H](O)[C@@H]1O [FDG] | 0.048 | 0.07 | 0.034 | 0.22 | 0.074 | 0.064 | 0.039 | 0.053 | 0.096 | 0.047 | 0.03 | 0.14 | 0.041 | 0.044 | 0.039 | 0.32 | 0.062 | critical organ (radiation dose): urinary bladder wall, followed by heart, spleen and pancreas; estimated absorbed radiation dose, Gallbladder Wall (organ: Gallbladder Wall): 0.049 rad/mCi; estimated absorbed radiation dose, Liver (organ: Liver): 0.058 rad/mCi; estimated absorbed radiation dose, Lower Large Intestine Wall (organ: Lower Large Intestine Wall): 0.051 rad/mCi; estimated absorbed radiation dose, Small Intestine (organ: Small Intestine): 0.047 rad/mCi; estimated absorbed radiation dose, Upper Large Intestine Wall (organ: Upper Large Intestine Wall): 0.046 rad/mCi
